Type in all cases: cell-based
Experiment [1] has as its target T1, human norepinephrine transporter (Homo sapiens, UniProt P23975).
T1 construct: expressed in transfected cells
The experiment is described as follows: Inhibitory action on human norepinephrine transporter ([3H]-norepinephrine uptake in CHO cells). The settings on record: CHO, compound 1 μM; relative to inhibitory activity of 10 μM DMI as 100%; read-out: inhibitory rate (%). From the text: (§1) Human serotonin transporter cDNA was amplified from human brain cDNA library by PCR, and inserted into pCRII-TOPO vector (manufactured by Invitrogen). The base sequence was confirmed and modified, and subcloned to pcDNA3.1 vector (manufactured by Invitrogen), whereby a human serotonin transporter expression plasmid was constructed. Human norepinephrine transporter cDNA was purchased from Invitrogen, and the base sequence was confirm and modified, and subcloned to pcDNA3.1 vector, whereby a human norepinephrine transporter expression plasmid was constructed.
(§2) The monoamine transporter expression plasmids thus prepared were introduced into CHO-K1 cells using FuGENE6 (manufactured by Roche Diagnostics) and according to the attached protocol, whereby each expressing cell was established.
CHO cells stably expressing human norepinephrine transporter were used for the measurement of human norepinephrine transporter inhibitory activity. Unless otherwise indicated, these CHO cells were cultured in Ham/F12 medium (Invitrogen) containing 10% fetal bovine serum (MOREGATE).
The cultured cells that reached almost confluent were rinsed with PBS (Invitrogen), detached with Trypsin/EDTA (Invitrogen), and collected by a centrifugal operation. The obtained cells were counted, and diluted to 3×10^5 cells per 1 mL medium, and the mixture was dispensed to a 96 well white plate (Corning) at 100 μL per well, and cultured overnight in a CO2 incubator.
(§3) Then, an assay buffer (126 mM NaCl, 4.95 mM KCl, 1.26 mM KH2PO4, 1.26 mM MgSO4, 10 mM HEPES, 2.32 mM CaCl2, 5.52 mM Glucose, 0.5% BSA) was prepared, the medium in the cell plate was removed and the assay buffer was added by 80 μL. A test compound was diluted with the assay buffer to a 10-fold concentration of the final concentration, and the mixture was dispensed to a 96 well polypropylene plate. The diluted test compound was dispensed to the cell plate by 10 μL. [3H]-Norepinephrine (GE Healthcare) was diluted with the assay buffer to 200 nM, and the mixture was dispensed to the cell plate by 10 μL. At 45 min from [3H]-norepinephrine addition, the assay buffer was removed by suction, and the plate was washed twice with 150 μL of PBS (Invitrogen) per well. Microscinti20 (PerkinElmer) was dispensed to each well by 100 μL, and the mixture was stirred for about 30 min. The radioactivity was measured by TopCount (PerkinElmer).
The inhibitory activity of each compound (10 μM) was calculated as a relative activity value based on the inhibitory activity of 10 μM DMI (norepinephrine transporter inhibitor) as 100%.
The inhibitory activity of each compound (1 μM) was calculated as a relative activity value based on the inhibitory activity of 10 μM DMI (norepinephrine transporter inhibitor) as 100%.

The target in experiment [2] is T2, human serotonin transporter (Homo sapiens, UniProt P31645).
T2 construct: expressed in transfected cells
T2 sequence (P31645 whole entry): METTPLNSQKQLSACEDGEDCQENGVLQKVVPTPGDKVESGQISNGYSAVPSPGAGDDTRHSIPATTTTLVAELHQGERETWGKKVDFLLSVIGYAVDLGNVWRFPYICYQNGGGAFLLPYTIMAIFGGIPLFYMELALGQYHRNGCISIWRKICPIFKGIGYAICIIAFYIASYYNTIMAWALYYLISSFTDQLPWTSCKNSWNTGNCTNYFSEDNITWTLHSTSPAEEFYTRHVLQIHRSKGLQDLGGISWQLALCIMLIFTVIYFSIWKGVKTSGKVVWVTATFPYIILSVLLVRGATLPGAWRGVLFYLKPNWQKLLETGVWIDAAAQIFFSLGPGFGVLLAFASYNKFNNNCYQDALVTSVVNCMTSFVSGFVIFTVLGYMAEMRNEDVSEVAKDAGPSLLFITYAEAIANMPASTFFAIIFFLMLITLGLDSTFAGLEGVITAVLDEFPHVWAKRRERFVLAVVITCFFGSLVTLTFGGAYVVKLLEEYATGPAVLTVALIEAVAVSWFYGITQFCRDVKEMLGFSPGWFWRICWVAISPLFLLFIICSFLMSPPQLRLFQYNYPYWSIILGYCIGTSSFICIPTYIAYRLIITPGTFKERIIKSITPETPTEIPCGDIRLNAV
The experiment is described as follows: Inhibitory action on human serotonin transporter ([3H]-5-hydroxytryptamine uptake in CHO cells). The conditions noted are these: CHO, compound 1 μM; relative to inhibitory activity of 10 μM Paroxetine as 100%; read-out: inhibitory rate (%).
From the text: as §1, §2
CHO cells stably expressing a human serotonin transporter were used for the measurement of human serotonin transporter inhibitory activity. Unless particularly indicated, these CHO cells were cultured in a Ham/F12 medium (Invitrogen) containing 10% fetal bovine serum (MOREGATE).
The cultured cells that reached almost confluent were rinsed with PBS (Invitrogen), detached with Trypsin/EDTA (Invitrogen), and collected by a centrifugal operation. The obtained cells were counted, and diluted to 3×10^5 cells per 1 mL medium, the mixture was dispensed to a 96 well white plate (Corning) at 100 μL per well, and cultured overnight in a CO2 incubator.
as §3, with “[3H]-5-Hydroxytryptamine” for “[3H]-Norepinephrine”, “20” for “45”, “[3H]-5-hydroxytryptamine” for “[3H]-norepinephrine”
The inhibitory activity of each compound (10 μM) was calculated as a relative activity value based on the inhibitory activity of 10 μM Paroxetine (serotonin transporter inhibitor) as 100%.
In addition, the inhibitory activity of each compound (1 μM) was calculated as a relative activity value based on the inhibitory activity of 10 μM Paroxetine (serotonin transporter inhibitor) as 100%.

Experiment [3] concerns the target T3, human dopamine transporter (Homo sapiens, UniProt Q01959).
T3 construct: expressed in transfected cells
The experiment is described as follows: Inhibitory action on human dopamine transporter ([3H]-dopamine uptake in CHO cells). The settings on record: CHO, compound 1 μM; relative to inhibitory activity of 100 μM Nomifensine as 100%; read-out: inhibitory rate (%).
From the text: SRα promoter contained in pTB1411 described in JP-A-H5-076385 was cleaved with restriction enzyme […](manufactured by TAKARA BIO INC.), blunt-ended, further cleaved with restriction enzyme EcoRI (manufactured by TAKARA BIO INC.), and fragmented. On the other hand, pCI vector was cleaved with restriction enzyme BglII (manufactured by TAKARA BIO INC.), blunt-ended with T4 DNA polymerase, and further cleaved with restriction enzyme EcoRI (manufactured by TAKARA BIO INC.). Into this site was inserted an SRa promoter fragment to give pCI-SRa. Then, pCI-SRa was cleaved with restriction enzyme ClaI (manufactured by TAKARA BIO INC.) and blunt-ended. Into this site was inserted a 1.63 Kb fragment obtained by cleaving pGFP-C1 (manufactured by TOYOBO) with restriction enzyme Bsu36I (manufactured by Daiichi Pure Chemicals Co., Ltd.) followed by blunt-ending, whereby pMSRα neo was prepared. Human dopamine transporter cDNA was amplified from human substantia nigra cDNA library by PCR, and inserted into the pCRII vector (manufactured by Invitrogen). The base sequence was confirmed, modified and subcloned to pMSRα neo, whereby a human dopamine transporter expression plasmid was constructed.
as §2
CHO cells stably expressing human dopamine transporter were used for the measurement of human dopamine transporter inhibitory activity. Unless otherwise indicated, these CHO cells were cultured in Ham/F12 medium (Invitrogen) containing 10% fetal bovine serum (MOREGATE).
One day before the assay, the cultured cells that reached almost confluent were rinsed with PBS (Invitrogen), detached with Trypsin/EDTA (Invitrogen), and collected by a centrifugal operation. The obtained cells were counted, and diluted to 3×10^5 cells per 1 mL medium, and the mixture was dispensed to a 96 well white plate (Corning) at 100 μL per well, and cultured overnight in a CO2 incubator.
as §3, with “On the day of the test,” for “Then,”, “[3H]-Dopamine” for “[3H]-Norepinephrine”, “nM, cold dopamine was diluted to 10 μM,” for “nM,”, “60” for “45”, “[3H]-dopamine” for “[3H]-norepinephrine”
The inhibitory activity of each compound (10 μM) was calculated as a relative activity value based on the inhibitory activity of 100 μM Nomifensine (dopamine transporter inhibitor) as 100%.
The inhibitory activity of each compound (1 μM) was m calculated as a relative activity value based on the inhibitory activity of 100 μM Nomifensine (dopamine transporter inhibitor) as 100%.

Where a name gives a salt, the structure may show the parent alone.

T1 sequence (P23975 whole entry): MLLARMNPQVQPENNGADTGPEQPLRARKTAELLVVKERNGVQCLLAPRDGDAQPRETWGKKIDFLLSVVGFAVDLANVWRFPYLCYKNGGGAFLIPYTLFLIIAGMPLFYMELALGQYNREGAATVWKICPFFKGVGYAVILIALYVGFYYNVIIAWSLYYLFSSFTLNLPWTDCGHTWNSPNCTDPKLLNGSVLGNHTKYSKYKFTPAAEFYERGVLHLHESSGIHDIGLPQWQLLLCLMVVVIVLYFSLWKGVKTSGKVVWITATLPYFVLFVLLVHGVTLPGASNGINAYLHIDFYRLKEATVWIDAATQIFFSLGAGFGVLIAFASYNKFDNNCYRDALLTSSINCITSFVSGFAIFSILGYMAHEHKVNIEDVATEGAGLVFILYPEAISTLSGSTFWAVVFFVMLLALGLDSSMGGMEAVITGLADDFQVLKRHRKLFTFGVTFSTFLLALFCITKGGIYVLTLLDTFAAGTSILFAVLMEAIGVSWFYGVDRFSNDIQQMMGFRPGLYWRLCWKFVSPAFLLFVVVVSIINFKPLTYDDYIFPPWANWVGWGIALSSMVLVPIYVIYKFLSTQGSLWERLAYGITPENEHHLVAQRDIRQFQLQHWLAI
T3 sequence (Q01959 whole entry): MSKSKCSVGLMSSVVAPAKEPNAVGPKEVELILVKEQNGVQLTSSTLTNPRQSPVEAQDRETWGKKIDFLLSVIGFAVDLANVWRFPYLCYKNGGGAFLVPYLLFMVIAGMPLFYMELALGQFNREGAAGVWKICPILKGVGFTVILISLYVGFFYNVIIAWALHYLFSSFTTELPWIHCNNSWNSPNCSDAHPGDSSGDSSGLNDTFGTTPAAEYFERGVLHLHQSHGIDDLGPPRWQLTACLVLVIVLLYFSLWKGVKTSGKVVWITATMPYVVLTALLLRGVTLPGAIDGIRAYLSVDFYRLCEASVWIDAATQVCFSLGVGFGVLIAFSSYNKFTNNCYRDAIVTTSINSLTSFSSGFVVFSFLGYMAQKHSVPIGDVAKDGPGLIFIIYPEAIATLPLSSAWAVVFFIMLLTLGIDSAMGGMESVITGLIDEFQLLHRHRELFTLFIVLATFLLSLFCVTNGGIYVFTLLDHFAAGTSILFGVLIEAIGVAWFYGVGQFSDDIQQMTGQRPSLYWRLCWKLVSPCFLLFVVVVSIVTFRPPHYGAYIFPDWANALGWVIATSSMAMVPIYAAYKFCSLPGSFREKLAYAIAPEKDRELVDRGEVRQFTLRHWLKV

In the case of `CC(=O)N[C@@H]1CNCCO[C@@H]1c1ccc(Cl)c(Cl)c1` (racemic) [Example 62, N-[(6RS,7RS)-7-(3,4-dichlorophenyl)-1,4-oxazepan-6-yl]acetamide monohydrochloride], the inhibition at 1 µM was found to be 100% in experiment [1], 98% in experiment [2] and 64% in experiment [3].

Take `CS(=O)(=O)N[C@@H]1CNCCO[C@@H]1c1ccc(Cl)c(Cl)c1` (racemic) [Example 63, N-[(6RS,7RS)-7-(3,4-dichlorophenyl)-1,4-oxazepan-6-yl]methanesulfonamide monohydrochloride]: the inhibition at 1 µM in experiment [1] came out at 100%; in experiment [2] it was 93%; in experiment [3], 82%.

In the case of `CS(=O)(=O)NC[C@@]1(O)CNCCO[C@@H]1c1ccc(Cl)c(Cl)c1` (racemic) [Example 162, N-{[(6RS,7SR)-7-(3,4-dichlorophenyl)-6-hydroxy-1,4-oxazepan-6-yl]methyl}methanesulfonamide monohydrochloride], the inhibition at 1 µM came out at 105% in experiment [1], 65% in experiment [2] and 40% in experiment [3].

For the compound `O[C@H]1CNCCO[C@@H]1c1ccc(Cl)c(Cl)c1` (racemic) [Example 230, (6RS,7SR)-7-(3,4-dichlorophenyl)-1,4-oxazepan-6-ol monohydrochloride], the results for the inhibition at 1 µM in experiment [1], in experiment [2] and in experiment [3] were 100%, 59% and 25%, respectively.

On to `O=c1[nH]c(-c2cccnc2O[C@H]2CNCCOC2c2ccc(Cl)c(Cl)c2)no1` (mixture of isomers) [Example 236, 3-(2-{[(6RS,7SR)-7-(3,4-dichlorophenyl)-1,4-oxazepan-yl]oxy}pyridin-3-yl)-1,2,4-oxadiazol-5(4H)-one monohydrochloride], for which the results for the inhibition at 1 µM in experiment [1], in experiment [2] and in experiment [3] were 105%, 92% and 93%, respectively.

For the compound `OC[C@@H]1CNCCO[C@@H]1c1ccc(F)c(Cl)c1` (racemic) [Example 278, [(6RS,7RS)-7-(3-chloro-4-fluorophenyl)-1,4-oxazepan-6-yl]methanol monohydrochloride], the inhibition at 1 µM in experiment [1] stood at 91%; in experiment [2] it was 87%; in experiment [3], 13%.

On to `CS(=O)(=O)C[C@@H]1CNCCOC1c1ccc(F)c(Cl)c1` (mixture of isomers) [Example 281, (6RS,7SR)-7-(3-chloro-4-fluorophenyl)-6-[(methylsulfonyl)methyl]-1,4-oxazepane monohydrochloride], for which the inhibition at 1 µM turned out to be 95% in experiment [1], 95% in experiment [2] and 22% in experiment [3].

Consider `CS(=O)(=O)NC[C@H]1CNCCO[C@@H]1c1ccc(F)c(Cl)c1` (racemic) [Example 293, N-{[(6RS,7SR)-7-(3-chloro-4-fluorophenyl)-1,4-oxazepan-6-yl]methyl}methanesulfonamide monohydrochloride], for which the results for the inhibition at 1 µM in experiment [1], in experiment [2] and in experiment [3] were 95%, 65% and 31%, respectively.

As to `OC[C@H]1CNCCO[C@@H]1c1cc2ccccc2s1` (racemic) [Example 410, [(6RS,7SR)-7-(1-benzothiophen-2-yl)-1,4-oxazepan-6-yl]methanol monohydrochloride], the inhibition at 1 µM in experiment [1] was determined as 103%; in experiment [2] it was 91%; in experiment [3], 32%.

Turning to `CCOC(=O)[C@H]1NCCOC[C@@H]1c1ccc(Cl)c(Cl)c1` (racemic) [Example 412, ethyl (5RS,6SR)-6-(3,4-dichlorophenyl)-1,4-oxazepane-5-carboxylate monohydrochloride], the inhibition at 1 µM in experiment [1] turned out to be 86%; in experiment [2] it was 8%; in experiment [3], 83%.

On to `COC[C@@H]1OCCNC[C@@H]1c1ccc(Cl)c(Cl)c1` (racemic) [Example 449, (6RS,7SR)-6-(3,4-dichlorophenyl)-7-(methoxymethyl)-1,4-oxazepane monohydrochloride], for which the inhibition at 1 µM in experiment [1] was found to be 100%; in experiment [2], 53%; in experiment [3] it was 58%.

In the case of `O=C(Cn1cncn1)NC[C@@H]1OCCNC[C@@H]1c1ccc(Cl)c(Cl)c1` (racemic) [Example 457, N-{[(6RS,7SR)-6-(3,4-dichlorophenyl)-1,4-oxazepan-7-yl]methyl}-2-(1H-1,2,4-triazol-1-yl)acetamide monohydrochloride], the inhibition at 1 µM in experiment [1] was found to be 101%; in experiment [2], 27%; in experiment [3], 47%.

For the origin of these results see US20130267494A1, “1,4-OXAZEPANE DERIVATIVES” (priority 2010, published 2013).
